“Also recorded” adds a separate entry of the source.
Key:
[1] = system: STAT3 consensus sequence (5′-GACATTGC-3′); assay: HPLC assay of DNA adduct formation; assay type: binding; conditions: 4:1 ligand:oligonucleotide, room temperature, UV 254 nm
Text: (§1) The interactions of C1-linked PBD core compound (42), […] C1-linked PBD dimer compound (51) were studied with duplex transcription factor consensus sequences. For the C1-linked PBD core compound (42) and C1-linked PBD dimer compound (51) the study used a STAT3 consensus sequence (5′-GACATTGC-3′). Whereas for the C1-linked PBD monomer compound (49), an NF-KB consensus sequence (5′-GGGACAGCCC-3′) was used in the study. The interactions of each of the three compounds were studied with an HPLC assay utilizing a X-bridge MS […] Oligonucleotide Separation Technology (OST) column (2.3×50 mm) and a gradient of 40% acetonitrile/water and 100 mM TEAB ([…])/water as mobile phase with a flow rate of 0.5 mL/min and UV detection at 254 nm. A 4:1 molar ratio of ligand:oligonucleotide was used, with each single-stranded oligonucleotide dissolved in 1M ammonium acetate to form stock solutions of 1 mM. The oligonucleotides were initially annealed by heating their 1 mM solutions to 70° C. for 10 mins followed by gradual cooling over 8 hours and storage overnight at −20° C. Working solutions of oligonucleotides of 25 μM were then prepared by diluting the annealed stock solutions with 100 mM ammonium acetate. The ligands were dissolved in DMSO to form a stock solution of 10 mM which was stored at −20° C. for no longer than four months. Working solutions of the drug of 100 μM were prepared by diluting the stock solution with 100 mM ammonium acetate. The working solutions of the ligands were added to the working solution the oligonucleotides at RT, and the mixture incubated for different time intervals at room temperature. […] The chromatograms for HPLC assays using C1-linked PBD core (42), monomer (49) and dimer (51) compounds are shown in FIGS. 7, 8 and 9 respectively.

[2] = system: NF-KB consensus sequence (5′-GGGACAGCCC-3′); assay: HPLC assay of DNA adduct formation; assay type: binding; conditions: 4:1 ligand:oligonucleotide, room temperature, UV 254 nm
Text: as §1

[3] = system: MDA MB231 (triple negative human breast cancer); assay: Cytotoxicity by MTT assay; assay type: cell-based; conditions: 72 hours exposure, MDA MB 231
Method: MDA MB231 (triple negative human breast cancer) was obtained from the American Type Culture Collection. The cell-line was maintained in monolayer culture in 75 cm^2 flasks (TPP, Switzerland) under a humidified 5% CO2 atmosphere at 37° C. The MDA MB231 cell line was maintained in high glucose (Dulbecco's Modified Eagle Medium) DMEM (4.5 g\l; Invitrogen), foetal bovine serum (10%, Biosera UK), non-essential amino acids (ix; Invitrogen), L-glutamine (2 mM; Invitrogen) and Penicillin-Streptomycin (1% v/v, Invitrogen). For passaging, cells were washed with PBS [Phosphate-Buffered Saline] […] For seeding, cells were counted using a Neubauer haemocytometer (Assistant, Germany) by microscopy (Nikon, USA) on a non-adherent suspension of cells that were washed in PBS, trypsinised, centrifuged at 8° C. at 8000 rpm for 5 min and re-suspended in fresh medium.
The cells were grown in normal cell culture conditions at 37° C. under a 5% CO2 humidified atmosphere using appropriate medium. […] After 72 h of continuous exposure to each compound, the cytotoxicity was determined using the 3-(4,5-Dimethylthiazol-2-yl)-2,5-diphenyltetrazolium bromide (MTT) (Lancaster Synthesis Ltd, UK) colorimetric assay. Absorbance was quantified by spectrophotometry at λ=570 nm (Envision Plate Reader, PerkinElmer, USA). IC50 values were calculated by a dose-response analysis using the Prism GraphPad Prism® software. […]

[4] = system: cancer cell lines; conditions: cited from earlier work

| Structure (SMILES) | DNA adduct formation (HPLC chromatogram) [1] | DNA adduct formation (HPLC chromatogram) [2] | IC50 [3] | activity against some cancer cell lines [4] |
| --- | --- | --- | --- | --- |
| COc1cc2c(cc1OC)C(=O)N1CC[C@H](O)[C@H]1C=N2 [Compound 42, (1S,11aR)-1-Hydroxy-7,8-dimethoxy-1,2,3,11a-tetrahydro-5H-benzo[e]pyrrolo[1,2-a][1,4]diazepin-5-one] | evidence of DNA adduct formation; also recorded: interacted with the DNA consensus sequence to form adducts | – | – | – |
| COC(=O)c1cc(-c2ccc(NC(=O)c3nc(NC(=O)CO[C@H]4CCN5C(=O)c6cc(OC)c(OC)cc6N=C[C@H]45)cn3C)cc2)cn1C [Compound 49, Methyl 4-(4-(4-(2-(((1S,11aR)-7,8-dimethoxy-5-oxo-2,3,5,11a-tetrahydro-1H-benzo[e]pyrrolo[1,2-a][1,4]diazepin-1-yl)oxy)acetamido)-1-methyl-1H-imidazole-2-carboxamido)phenyl)-1-methyl-1H-pyrrole-2-carboxylate] | – | evidence of DNA adduct formation; also recorded: interacted with the DNA consensus sequence to form adducts | 0.036 ± 0.0023 µM | – |
| COc1cc2c(cc1OC)C(=O)N1CC[C@H](OCCCO[C@H]3CCN4C(=O)c5cc(OC)c(OC)cc5N=C[C@H]34)[C@H]1C=N2 [Compound 51, (1S,1′S)-1,1′-(Propane-1,3-diylbis(oxy))bis(7,8-dimethoxy-1,2,3,11a-tetrahydro-5H-benzo[e]pyrrolo [1,2-a][1,4]diazepin-5-one)] | evidence of DNA adduct formation; also recorded: interacted with the DNA consensus sequence to form adducts | – | 0.236 ± 0.027 µM | – |
| COC(=O)c1cc(-c2ccc(NC(=O)c3nc(NC(=O)CCCOc4cc5c(cc4OC)C(=O)N4CCC[C@H]4C=N5)cn3C)cc2)cn1C [KMR-28-39] | – | – | – | femtomolar activity |

— patent US9999625B2, “Pyrrolobenzodiazepine compounds” (FEMTOGENIX LIMITED, priority 2014, dated 2018)
